# Measurements from patent EP0473671B1, “USE OF SIGMA-RECEPTORS LIGANDS FOR THE MANUFACTURE OF AN ANXIOLYTIC AGENT” (STATE OF OREGON BY AND THROUGH OREGON STATE BOARD OF HIGHER …, priority 1989, dated 1990).
# Like-named read-outs stand apart in the source and are kept apart here.
# Legend:
# sigma receptors = assay: Sigma receptor binding assay, displacement of [³H]DTG; conditions: guinea pig brain membrane homogenates, radioligand [³H]DTG […], 90 minutes at room temperature; read-out: IC₅₀ binding values
# Procedure: Briefly, frozen whole guinea-pig brains (Biotrol, Indianapolis, IN) were homogenized in 10 volumes (w/v) of ice-cold 320 mM sucrose using a Brinkman polytron. The homogenate was centrifuged at 1,000 x g for 20 minutes at 4°C. The supernatant was centrifuged at 20,000 x g for 20 minutes at 4°C. The resulting pellet was resuspended in 10 initial volumes of 50 mM Tris/HCl buffer at pH 7.4 and centrifuged at 20,000 x g for 20 minutes at 4°C. The resulting pellet was resuspended in 5 initial volumes ice-cold 50mM Tris/Hcl (pH .4), and the final volume was adjusted to yield a protein concentration of 3 mg/ml, as determined by dye-binding protein assay (Biorad) using BSA as the standard.
# Incubations were terminated after 90 minutes at room temperature by addition of 4 ml of ice-cold 50mM Tris/HCl (pH 7.4) and rapid filtration of the membrane suspension through Whatman GF/B glass-fiber filters under vacuum, using a 48-well cell harvester (Brandel, Gaithersburg, MD). The filters were washed 2 times with 4 ml of 50 mM Tris/HCl (pH 7.4). Total filtration and washing time was less than 20 seconds. Each filter was dissolved in 10 ml Cytoscint (Westchem, San Diego, CA), and radioactivity was measured by liquid scintillation spectrometry at a counting efficiency of approximately 50%. IC₅₀ values were determined by interpolation from displacement-curve plots on semilogarithmic graph paper.
# male albino BKW mice [1] = assay: Light/dark exploration of mice (black:white test box); conditions: for numbers of rears and line crossings compared with controls (sedation): not sedative at the dosage level; for latency to entering the dark compartment / numbers of rears and line crossings at the highest dose (sedation): subcutaneously; for numbers of rears and line crossings at the highest dose (sedation): 0.1 mg/kg, drug not sedative at this level
# Male Hooded Lister rats = assay: Rat social interaction test; format: in vivo; conditions: for social interactions: 40 min. before testing, 10 min session, n = 6
# Source text: A second preferred animal model is the rat social interaction test described by Jones, B.J. et al., supra, wherein the time that two mice spend in social interaction is quantified. […] Both the familiarity and the light level of the test arena may be manipulated. Undrugged rats show the highest level of social interaction when the test arena is familiar and is lit by low light. Social interaction declines if the arena is unfamiliar to the rats or is lit by bright light. Anxiolytic agents prevent this decline. The overall level of motor activity may also be measured to allow detection of drug effects specific to social behaviors.
# Male Hooded Lister rats (Glaxo bred, 200-250g), were housed 5 to a cage and were kept in the laboratory environment for at least a week before testing. Rats paired in the test were taken from separate cages.
# The test arena consisted of an open-topped box, 62 x 62 x 33 cm with a 7 x 7 matrix of infra-red photocell beams in the walls, 2.5 cm from the floor.
# Testing involved placing each member of a pair of rats in opposite corners of the arena and then leaving them undisturbed for 10 min. while recording their behavior remotely on videotape. The behavioral assessments were made subsequently from the recordings. The time spent in social interaction was measured and expressed as a cumulative total for the 10 min session. The behaviors that comprised social interaction were: following with contact, sniffing (but not sniffing of the hindquarters), crawling over and under, tumbling, boxing and grooming.
# N-adamantyl-N'-o-tolylguanidine was tested over the range of 0.001-0.1 mg/kg.
# male albino BKW mice [2] = conditions: mouse, in vivo
# [3] = subcutaneously 40 min before testing, 0.01 ug to 0.1 mg/kg
# [4] = 0.01 ug to 0.1 mg/kg, result in words
molecule,measurement,setting,value
N=C(Nc1ccccc1I)N[C@@H]1C[C@@H]2CC[C@H]1C2 (racemic) [N-((±)-endo-2-norbornyl)-N'-(2-iodophenyl)guanidine],IC50,sigma receptors,5 nM
Cc1ccccc1NC(=N)N[C@@H]1C[C@@H]2CC[C@H]1C2 (racemic) [N-((±)-endo-2-norbornyl)-N'-(2-methylphenyl)guanidine],IC50,sigma receptors,6 nM
N=C(Nc1ccccc1I)N[C@H]1C[C@@H]2CC[C@H]1C2 (relative stereo) [N-(exo-2-norbornyl)-N'-(2-iodophenyl)guanidine],IC50,sigma receptors,4 nM
Cc1ccccc1NC(=N)N[C@H]1C[C@@H]2CC[C@H]1C2 (relative stereo) [N-(exo-2-norbornyl)-N'-(2-methylphenyl)guanidine],IC50,sigma receptors,7 nM
"CCCN1CCC[C@@H](c2cccc(O)c2)C1 [(-)-3-PPP, reference compound]",IC50,sigma receptors,280 ± 21 nM
"C=CCN1CC[C@@]2(C)c3cc(O)ccc3C[C@@H]1[C@@H]2C [(-)-SKF10047, reference compound]",IC50,sigma receptors,4000 ± 566 nM
"N=C(NC1CCCCC1)NC12CC3CC(CC(C3)C1)C2 [AdChG, N-(cyclohexyl)-N'-(adamant-1-yl)guanidine]",IC50,sigma receptors,12.5 nM
"NC(=Nc1ccccc1I)NC12CC3CC(CC(C3)C1)C2 [AdIpG, N-(2-iodophenyl)-N'-(adamant-1-yl)guanidine]",IC50,sigma receptors,6.2 nM
same,anxiolytic activity when orally administered,"male albino BKW mice [1]; orally administered, 1 mg/kg",anxiolytic activity
same,latency to entering the dark compartment in comparison to controls,"male albino BKW mice [1]; orally administered, 1 mg/kg",increase
same,numbers of line crossings and rears in the light compartment,"male albino BKW mice [1]; orally administered, 1 mg/kg",increase
same,numbers of rears and line crossings compared with controls (sedation),"male albino BKW mice [1]; orally administered, 1 mg/kg",did not decrease significantly
same,numbers of line crossings and rears in the light compartment,male albino BKW mice [1]; [3],increased at the expense of those in the dark compartment
same,"proportion of time the mice spent in the larger, lighted area of the test chamber",male albino BKW mice [1]; [3],"increased, in a dose dependant manner"
same,latency to entering the dark compartment,male albino BKW mice [1]; [4],increased in a dose dependant manner
same,numbers of rears and line crossings at the highest dose (sedation),male albino BKW mice [1],did not decrease significantly
"Cc1ccccc1NC(=N)NC12CC3CC(CC(C3)C1)C2 [AdTG, N-(o-tolyl)-N'-(adamant-1-yl)guanidine]",social interactions,Male Hooded Lister rats; 0.001-0.1 mg/kg i.p.,significantly increased
same,"dose producing about the same result, relative to the dose of diazepam",Male Hooded Lister rats; 1 mg/kg for diazepam and 0.1 mg/kg for N-adamantyl-N'-o-tolylguanidine,one-tenth
same,anxiolytic activity when orally administered,"male albino BKW mice [1]; orally administered, 1 mg/kg",anxiolytic activity
same,numbers of line crossings and rears in the light compartment,"male albino BKW mice [1]; orally administered, 1 mg/kg",increased at the expense of those in the dark compartment
same,"proportion of time the mice spent in the larger, lighted area of the box","male albino BKW mice [1]; orally administered, 1 mg/kg",increased significantly
same,numbers of line crossings and rears in the light compartment,male albino BKW mice [1]; [3],increased at the expense of those in the dark compartment
same,"proportion of time the mice spent in the larger, lighted area of the test chamber",male albino BKW mice [1]; [3],dose dependently increased
same,latency to entering the dark compartment,male albino BKW mice [1]; [4],increased in a dose dependant manner
same,numbers of rears and line crossings at the highest dose (sedation),male albino BKW mice [1],did not decrease significantly
"N=C1Nc2ccccc2-c2ccccc2N1 [Bridge-DPG, 2-imino-1,3H-dibenzo[d,f]-[1,3]-diazepine]",IC50,sigma receptors,> 100000 nM
"N=C(NC12CC3CC(CC(C3)C1)C2)NC12CC3CC(CC(C3)C1)C2 [DAG, N,N'-di(adamant-1-yl)guanidine]",anxiolytic activity when orally administered,"male albino BKW mice [1]; orally administered, 1 mg/kg",anxiolytic activity
same,latency to entering the dark compartment in comparison to controls,"male albino BKW mice [1]; orally administered, 1 mg/kg",increase
same,numbers of line crossings and rears in the light compartment,"male albino BKW mice [1]; orally administered, 1 mg/kg",increase
same,numbers of rears and line crossings compared with controls (sedation),"male albino BKW mice [1]; orally administered, 1 mg/kg",did not decrease significantly
same,numbers of line crossings and rears in the light compartment,male albino BKW mice [1]; [3],increased at the expense of those in the dark compartment
same,"proportion of time the mice spent in the larger, lighted area of the test chamber",male albino BKW mice [1]; [3],tended to increase
same,numbers of rears and line crossings at the highest dose (sedation),male albino BKW mice [1],did not decrease significantly
same,latency to entering the dark compartment,"male albino BKW mice [1]; peak effect at 0.01 ug/kg, controls 12 sec",20 s
"Cc1ccccc1NC(=N)NC1CCCCC1 [DChG, N-(o-tolyl)-N'-(cyclohexyl)guanidine]",IC50,sigma receptors,86 ± 17 nM
"CNC(=N)NC [DMG, N,N'-di(methyl)guanidine]",IC50,sigma receptors,> 100000 nM
"Cc1cccc(C)c1NC(=N)Nc1c(C)cccc1C [DXG, N,N'-di-(2,6-dimethylphenyl)-guanidine]",IC50,sigma receptors,90 ± 18 nM
Cc1ccccc1NC(=N)NC1C2CC3CC(C2)CC1C3 (centres unmarked) [N-(adamant-2-yl)-N'-(2-methylphenyl)guanidine],IC50,sigma receptors,7 nM
N=C(Nc1ccccc1I)NC1C2CC3CC(C2)CC1C3 (centres unmarked) [N-adamant-2-yl)-N'-(2-iodophenyl)guanidine],IC50,sigma receptors,3.5 nM
Cc1ccccc1NC(=N)NC1CCCCC1 [N-cyclohexyl-N'-(2-methylphenyl)-guanidine],IC50,sigma receptors,13 nM
Cc1ccccc1NC(=N)Nc1ccc(N)cc1C [NH₂-DTG],IC50,sigma receptors,280 ± 20 nM
"CN(C)CCCN1c2ccccc2Sc2ccc(Cl)cc21 [chlorpromazine, reference compound]",IC50,sigma receptors,1480 ± 265 nM
"CN1C(=O)CN=C(c2ccccc2)c2cc(Cl)ccc21 [diazepam, reference compound]",social interactions,Male Hooded Lister rats; diazepam intraperitoneally 0.125-1 mg/kg,significantly increased
same,numbers of rears and line crossings at the highest dose (sedation),male albino BKW mice [2],decreased significantly
same,numbers of line crossings and rears in the light compartment,"male albino BKW mice [1]; mouse, in vivo",increased at the expense of those in the dark compartment
same,"proportion of time the mice spent in the larger, lighted area of the test chamber","male albino BKW mice [1]; mouse, in vivo",dose-dependently increased
"CCN1CCCC1CNC(=O)c1cc(S(N)(=O)=O)ccc1OC (centres unmarked) [sulpiride, reference compound]",IC50,sigma receptors,> 100 nM
"O=C1CC2(CCCC2)CC(=O)N1CCCCN1CCN(c2nsc3ccccc23)CC1 [tiospirone, reference compound]",IC50,sigma receptors,233 ± 52 nM
"N,N-di(o-tolyl)-guanidine [DTG]","number of rears, crossings, or the % time in the black compartment","male albino BKW mice [1]; s.c., at the concentrations tested, Figure 7",did not affect significantly
N-(adamant-1-yl)-N'-[(E)-2-phenylethenyl]phenylguanidine,IC50,sigma receptors,1000 nM
same,numbers of line crossings and rears in the light compartment,male albino BKW mice [1]; [3],tended to remain the same except at the highest dosage
same,"proportion of time the mice spent in the larger, lighted area of the test chamber",male albino BKW mice [1]; [3],generally did not increase
same,numbers of rears and line crossings at the highest dose (sedation),male albino BKW mice [1],did not decrease significantly
